Measured values: PubChem BioAssay AID2305 (GlaxoSmithKline (GSK), 2010)
Several values for one entry are separate records, joined by “and”; a condition that tells them apart may be missing. Equal values may be shown once.

What follows are compounds tested on P. falciparum 3D7 growth, pLDH absorbance (assay: blood-stage malaria parasite growth potency – strain 3D7, dose response (AID 2305)).

In order of rising IC50:
1. CC1(C)N=C(N)N=C(N)N1OCc1cc(Cl)c(Cl)cc1CON1C(N)=NC(N)=NC1(C)C  10 nM
2. Cc1ccc(CON2C(N)=NC(N)=NC23CCCCC3)c2ccccc12  70 nM
3. Nc1nc(N)c2c(Cl)c(N3CCOCC3)ccc2n1  80 nM
4. CC[C@H]1CN2CC[C@H]1C[C@H]2[C@H](O)c1cc(N2CCCC(CO)C2)nc2ccc(OC)cc12 (stereo partly drawn)  80 nM
5. COc1ccccc1Cn1ccnc1SCC(=O)Nc1cc(C(F)(F)F)ccc1Cl  100 nM
6. c1cc(CN2CCN(CCN3CCOCC3)CC2)cc(-c2ccc(-c3nc4ccccc4[nH]3)cc2)c1  130 nM
7. COc1cc2nc(N3CCC(CNC(=O)c4ccc(-c5ccc(C(F)(F)F)cc5)cc4)CC3)nc(N)c2cc1OC  130 nM
8. CCC1CN2CCc3cc(OC)c(OC)cc3C2CC1CC1NCCc2cc(OC)c(OC)cc21 (stereo not drawn)  140 nM
9. CCOc1ccc2nc(-c3ccccc3)cc(NN=Cc3ccncc3)c2c1  150 nM
10. CCCc1ccc(C(=O)N2[C@@H](c3nccs3)[C@@H](C(N)=O)C[C@@]2(CC(C)C)C(=O)O)cc1  160 nM
11. CCN(Cc1ccccc1)CC(O)c1ccc(Cl)c(Cl)c1 (stereo not drawn)  180 nM
12. O=C(Nc1ccc(Oc2ccccc2)cc1)N[C@H]1CCN(Cc2ccc(OCCCN3CCCCC3)cc2)C1  180 nM
13. CC(=O)Nc1ccc(COc2ccc(Nc3ccnc4cc(-c5ccccn5)ccc34)cc2)cc1  200 nM
14. CNc1ccc(CNCc2ccc(-c3ccc(-c4nc5ccc(F)cc5[nH]4)cc3)cc2)cc1  210 nM
15. Cc1[nH]cnc1-c1cccc(NC(=O)c2cc3ccccc3s2)c1  210 nM
16. Cc1cccc2[nH]c(-c3ccc(-c4ccc(CNCc5ccccc5)cc4)s3)nc12  210 nM
17. COc1ccc(O)c(Cc2cnc3nc(N)[nH]c(=O)c3c2C)c1  230 nM
18. C[C@H](Cc1ccc(OCCCCCCOc2ccc(C[C@@H](C)N[C@H](C)c3ccccc3)cc2)cc1)NC[C@H](O)c1cccc(Cl)c1  240 nM
19. Fc1ccc2nc(-c3ccc(-c4cccc(CN5CCCCC5)c4)cc3)[nH]c2c1  270 nM
20. c1ccc(CN2CCC(NCc3ccc(-c4cccc(CNC5CCCC5)c4)cc3)CC2)cc1  340 nM
21. CC(Cc1ccc(NC(=O)c2ccc(CNCCc3ccccc3)cc2)cc1)NCCc1cccc(Cl)c1 (stereo not drawn)  350 nM
22. NC(=O)c1cccc(C(=O)Nc2ccc(-c3cccc(-c4nc5ccc(C(F)(F)F)cc5[nH]4)c3)cc2)c1  350 nM
23. Cc1cc2c(cc1Cl)N(C(=O)Nc1cc(F)cc(-c3cncnc3)c1)CC2  380 nM
24. COc1cc(NCC(O)CNc2cc(Cl)nc3ccccc23)nc2ccccc12 (stereo not drawn)  420 nM
25. CCOc1cc(C(=O)NC2CCN(Cc3ccccc3)CC2)ccc1-c1nc2cc(Cl)c(Cl)cc2[nH]1  470 nM
26. CN(C)CCNCc1cccc(-c2ccc3c(Nc4cc(O)c(Cl)cc4F)ccnc3c2)c1  550 nM
27. Cc1ccc(N2CCc3c(-c4cc5cccnc5nc4C)cc(C)nc32)c(Cl)c1  580 nM
28. COc1ccc2c(c1)CCN(CCN1CCC(CNC(=O)c3ccc(-c4ccc(C#N)cc4)cc3)CC1)C2  620 nM
29. O=C(NCCc1ccccc1)N(Cc1ccccc1-c1cccc(CNCCc2ccccc2)c1)C1CCN(Cc2ccccc2)CC1  620 nM
30. Nc1cc(-c2ccc(Br)cc2O)nc2ccccc12  620 nM
31. CN1CCN(c2ccc(Nc3c4ccccc4nc4ccccc34)cc2)CC1  640 nM
32. CS(=O)(=O)CCCNCc1ccc(-c2cc3c(Nc4ccc(OCc5ccccc5)cc4)ncnc3cn2)o1  650 nM
33. Cc1cc(Nc2ccncc2)n2nc(C)c(-c3ccccc3Cl)c2n1  650 nM
34. NC(=O)c1ccccc1OCC(=O)Nc1cccc(-c2ccc(-c3nc4ccc(C(F)(F)F)cc4[nH]3)cc2)c1  650 nM
35. COc1ccc2ncc(F)c(CCN3C[C@H](CNCc4cc(F)c5c(c4)NC(=O)CO5)[C@H](O)C3)c2n1  670 nM
36. Cc1cc(Cl)ccc1OC(C)C(=O)N1CCc2ccccc21 (stereo not drawn)  670 nM
37. CNCCNCc1ccc(-c2ccc(-c3nc4c(C)cccc4[nH]3)cc2)cc1  670 nM
38. c1ccc2c(C3CCN(CCCCOc4ccc5c(c4)CCN(C4CCC4)CC5)CC3)c[nH]c2c1  710 nM
39. CN1CCN(CCCN(Cc2csc(-c3ccc(CNCc4ccccc4)cc3)n2)C(=O)c2cc(F)cc(F)c2)CC1  710 nM
40. O=C(Nc1cccc([N+](=O)[O-])c1)N(Cc1ccc(Cl)c(Cl)c1)C1CCNCC1  720 nM
41. Cc1[nH]c2ccc(-c3ccc(N(C)C)cc3)cc2c(=O)c1Cl  720 nM
42. N#CCSc1nnc(-c2ccccc2)c2ccccc12  720 nM
43. Oc1ccc(CCNCCCCCCNCCc2ccc(Cl)c(Cl)c2)cc1O  730 nM
44. C#CCCC(=O)Nc1cccc(-c2cccc(-c3nc4c(C)cccc4[nH]3)c2)c1  740 nM
45. CN(C)CCNc1ncnc2c1[nH]c1ccc(Br)cc12  740 nM
46. COc1ccc(CCNCCCCCNCCc2ccc(Cl)cc2)cc1OC  740 nM
47. O=S(=O)(c1cc2ccccc2s1)N(CCC(O)(C(F)(F)F)C(F)(F)F)Cc1cccc(O)c1  750 nM
48. O=C(Nc1ccc(C(F)(F)F)cc1)c1cccc(S(=O)(=O)NCC2CCCN(CC3CCCCC3)C2)c1 (stereo not drawn)  750 nM
49. Nc1nc(N)c2c(ccc3ccccc32)n1  750 nM
50. CCCOc1cc(OCCC)cc(-c2ccc(C(=O)Nc3ccc4ccc(C)nc4c3)c(=O)[nH]2)c1  750 nM
51. CN(C)S(=O)(=O)c1ccc(C(=O)N(c2nc(-c3ccccc3)cs2)C2CCCCC2)cc1  760 nM
52. COc1ccc(Nc2cc(C)nc(NCc3ccc4c(c3)OCO4)n2)cc1  770 nM
53. Cc1onc(-c2c(Cl)cccc2Cl)c1C(=O)N1CCc2cc3nccc(N4CCN5CCC[C@H]5C4)c3cc21  770 nM
54. O=C(Nc1ccc(Cl)cc1)Nc1ccc(Cn2ncc(N3CCCNCC3)c(Cl)c2=O)cc1  780 nM
55. Nc1ccnc(N2CCC(CCOc3cc(C(F)(F)F)nc4c(C(F)(F)F)cccc34)CC2)c1  790 nM
56. NC(N)=NN=Cc1c2ccccc2c(Cl)c2cc(Cl)ccc12  790 nM
57. FC(F)(F)c1cnc(Sc2nnc(-c3ccco3)o2)c(Cl)c1  790 nM
58. CC(=O)C1(c2ccccc2)CCN(CCC2(c3ccc(Cl)c(Cl)c3)CN(C(=O)C3CCCC3)CCO2)CC1 (stereo not drawn)  800 nM
59. OCC1CCN(Cc2ccc(-c3cccc(-c4nc5ccccc5[nH]4)c3)cc2)CC1  810 nM
60. CCNc1c2ccc(Cl)cc2nc2ccc(OC)cc12  840 nM
61. OCC1CCN(Cc2ccc(-c3ccc(-c4nc5ccc(F)cc5[nH]4)s3)cc2)CC1  850 nM
62. COc1ccc2nc(-c3ccc(C(=O)NCCCN4CCN(c5cc(Cl)ccc5OC)CC4)cc3OC)[nH]c2c1  870 nM
63. O=c1cc(NCCCNCc2sc(Br)nc2Br)[nH]c2ccccc12  870 nM
64. Cc1cc(OCCCn2ccnc2)ccc1-c1csc(NC(N)=NCc2ccccc2)n1  880 nM
65. CCN(CC)CCCC(C)Nc1c(-c2ccc(OC)cc2)cnc2ccccc12 (stereo not drawn)  890 nM
66. OCCc1ccc(Nc2nccc(-c3nnc4ccccn34)n2)cc1  900 nM
67. COc1ccc2nccc([C@@H](O)CN3CCC(NCc4cc5cccc(OCc6ccccc6)c5[nH]4)CC3)c2c1  900 nM
68. Cc1nc2ccc(NC(=O)Nc3ccnc4ccc(C(F)(F)F)cc34)cc2o1  910 nM
69. COc1ccccc1-c1[nH]c2ccccc2c1CN1CCC(c2c(C)cccc2C)CC1  920 nM
70. COc1ccc2nccc([C@@H](O)CN3CCC(NC(=O)c4ccc(C5(C(F)(F)F)N=N5)cc4)CC3)c2c1  930 nM
71. O=C(Nc1ccc(Br)cc1)N(CCN1CCOCC1)CC(O)COCc1ccc(Cl)c(Cl)c1 (stereo not drawn)  930 nM
72. NS(=O)(=O)c1cccc(Nc2nc(N[C@@H]3CCNC3)nc3cc[nH]c(=O)c23)c1  940 nM
73. O=C(NCc1ccc2c(c1)OCO2)c1nn(CCN2CCC(N3CCCC3)CC2)cc1-c1ccc(Cl)c(Cl)c1  940 nM
74. COc1ccc2ncc(Cl)c(N3CCC(CCNCc4ccc5c(n4)NC(=O)CS5)CC3)c2c1  960 nM
75. Cc1ccc2sc(N(CCCn3ccnc3)C(=O)c3ccco3)nc2c1C  970 nM
76. O=C(/C=C/c1ccc(C(F)(F)F)cc1)NCCCCCN1CCCN(C(=O)Nc2cccc(Cl)c2)CC1  990 nM
77. CC(=O)N(C)c1cccc(C(=O)Nc2cccc(-c3ccc(-c4nc5ccc(C(F)(F)F)cc5[nH]4)cc3)c2)c1  1000 nM
78. COc1ccc(CCNCCCCCCNCCc2cccc([N+](=O)[O-])c2)cc1OC  1000 nM
79. CC(CN1CCN(C)CC1)C(=O)Nc1cccc(-c2cccc(-c3nc4ccccc4[nH]3)c2)c1 (stereo not drawn)  1010 nM
80. Cc1cc(-c2ccc(NC(=O)N3CCc4cc(Br)c(N5CCN(C)CC5)cc43)cc2)cc(C)n1  1010 nM
81. Cc1ccccc1C1CCN(C2CCC(NC(=O)c3cc(-c4ccccc4)oc3C)CC2)CC1 (stereo not drawn)  1030 nM
82. c1ccc(CN2CCN(c3cc(-c4cncc(-c5ccccc5)c4)nc(-c4ccccc4)n3)CC2)cc1  1040 nM
83. CCC(CC)(CCC#N)CN(C[C@@H](O)[C@H](Cc1ccccc1)NC(=O)OC(C)(C)C)S(=O)(=O)c1ccc(OC)cc1  1040 nM
84. Nc1cccc(C=CC(=O)Nc2ccnc3ccccc23)c1  1060 nM
85. Cc1sc(N2CCN(C)CC2)nc1C(=O)Nc1ccc(F)cc1C(F)(F)F  1070 nM
86. Cc1cc(N[C@@H](CC(C)C)C(=O)NCc2cccc(F)c2)nc(NCCc2ccccc2)n1  1080 nM
87. Cc1cc(NCCC(=O)NCCc2ccccc2)nc(NCCc2ccc(F)cc2)n1  1080 nM
88. CC(C)OC(=O)c1ccc(NC(=O)N[C@@H](Cc2ccc(O)cc2)C(=O)NC2C[C@H]3CC[C@@H](C2)N3Cc2ccccc2)cc1 (stereo partly drawn)  1080 nM
89. ON=C(c1nc2ccccc2[nH]1)c1nc2ccccc2[nH]1  1090 nM
90. O=C(/C=C/c1ccc(Cl)c(Cl)c1)N1CCCC(CCCN2CCC(c3c[nH]c4ccccc34)CC2)C1 (stereo not drawn)  1090 nM
91. CCc1c(C(=O)NC2CCC(N3CCC(c4ccccc4OC)CC3)CC2)[nH]c2ccc(Br)cc12 (stereo not drawn)  1120 nM
92. CC(C)c1ccc(NC(=O)c2ccc(CN3CCCN(Cc4cccc(Cl)c4)CC3)cc2)cc1  1160 nM
93. O=C(Nc1cccc(CN2CCCN(Cc3ccc(O)cc3)CC2)c1)c1cc2ccccc2o1  1200 nM
94. CN(C)CCOc1ccc2c(=O)cc(CCc3cccc(F)c3F)n(CC(=O)N(C)Cc3ccc(-c4ccc(C(F)(F)F)cc4)cc3)c2c1  1200 nM
95. CO/C(=C\C=C\c1cc2cc(Cl)c(Cl)cc2[nH]1)C(=O)NCCN1CCCCC1  1400 nM
96. O=C(NC(=S)NCc1ccncc1)c1ccccc1  1690 nM
97. Nc1ncnc2occ(-c3ccc(NC(=O)Nc4cc(C(F)(F)F)ccc4F)cc3)c12  1720 nM

In the case of `O=C(C=Cc1cccc(Cl)c1Cl)NC1CCC(CN2CCC(c3c[nH]c4ccccc34)CC2)CC1` (stereo not drawn), the IC50 is reported as 680 nM and 1140 nM.
